Read-outs that look alike come from different tables or passages of the source. Where no end group is shown, it is not given here.

A word on the IC50: it is the concentration that inhibits the measured activity by half. For orientation: Kd means the constant that tells how readily two partners part at equilibrium.

Assay [1] deals with T1, G protein-coupled receptor (RG) conformation of PTH1R (Homo sapiens, UniProt Q03431).
T1 construct: expressed in transfected cells
T1 sequence (Q03431 27-593): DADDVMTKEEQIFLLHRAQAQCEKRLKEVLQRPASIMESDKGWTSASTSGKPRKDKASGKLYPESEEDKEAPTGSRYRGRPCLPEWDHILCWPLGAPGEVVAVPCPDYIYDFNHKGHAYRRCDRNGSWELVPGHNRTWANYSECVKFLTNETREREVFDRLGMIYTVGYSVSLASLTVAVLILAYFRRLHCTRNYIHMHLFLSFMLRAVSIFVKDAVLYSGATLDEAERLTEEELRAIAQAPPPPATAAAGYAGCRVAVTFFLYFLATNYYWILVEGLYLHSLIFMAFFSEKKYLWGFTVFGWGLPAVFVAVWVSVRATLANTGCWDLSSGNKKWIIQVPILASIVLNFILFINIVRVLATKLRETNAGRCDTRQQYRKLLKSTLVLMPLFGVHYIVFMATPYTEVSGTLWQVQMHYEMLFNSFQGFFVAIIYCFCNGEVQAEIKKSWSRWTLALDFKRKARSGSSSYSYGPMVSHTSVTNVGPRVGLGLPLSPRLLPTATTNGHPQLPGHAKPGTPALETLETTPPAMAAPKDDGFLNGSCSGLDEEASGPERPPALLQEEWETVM
Briefly: Receptor binding assay in cell membranes, RG conformation. Conditions: for IC50: n = 3, receptor co-expressed with dominant negative Gαs. How it is done: (§1) Receptor binding assay. Peptide binding to the G protein-uncoupled receptor (R0) and G protein-coupled receptor (RG) conformations in cell membranes was assessed as previously described (26).
(§2) Experimentally, the R0 conformation is studied by including GTPγS in the reactions to uncouple receptor and G protein and the RG conformation is studied by co-expressing the receptor with a dominant negative form of Gαs (23, 25).

Assay [2] addresses T2, MBP-PTH1R ECD-H6 fusion protein (Homo sapiens, UniProt Q03431).
T2 construct: fusion protein containing residues 29-187 of PTH1R fused to the C-terminus of MBP; made in house; host or cells: E. coli
T2 sequence (Q03431 29-187): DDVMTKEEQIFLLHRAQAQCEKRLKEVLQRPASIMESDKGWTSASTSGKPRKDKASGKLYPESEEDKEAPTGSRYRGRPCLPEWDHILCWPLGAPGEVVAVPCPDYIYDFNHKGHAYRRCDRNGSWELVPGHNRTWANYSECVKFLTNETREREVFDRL
Briefly: AlphaScreen ECD-peptide competition binding assay. Conditions: for IC50: biotinylated PTH(7-34)NH2 23 nM, MBP-PTH1R ECD 23 nM, read-out: IC50, competition of the AlphaScreen interaction; for ECD-binding (ability to compete biotin-PTH / MBP-PTH1R-ECD interaction): single point, peptide 20 μM, in words. As to the method: ECD-peptide binding assays. The binding of peptides to the MBP-PTH1R ECD-H6 fusion protein was assessed using an AlphaScreen assay (Perkin-Elmer). […] The pre-coupling reactions were mixed, un-labeled competitor peptides were added as indicated, and the reactions were incubated 4 to 5 hrs to reach equilibrium. Photon counts were recorded in 384-well optiplates using an Envision 2104 plate reader (Perkin-Elmer). Prism 5.0 software (GraphPad Software, San Diego) was used to fit the data to a fixed-slope dose-response inhibition equation for determination of IC50 values. Real-time analysis of the binding of peptides to the isolated PTH1R ECD using the Octet Red system (ForteBio) was performed as described in below.
Background: Bead proximity is the source of the signal in Alpha formats.

The target of assay [3] is T3, G protein-uncoupled receptor (R0) conformation of PTH1R (Homo sapiens, UniProt Q03431).
T3 sequence (Q03431 27-593): T1 sequence (Q03431 27-593)
The assay is described as follows: Receptor binding assay in cell membranes, R0 conformation. To be noted: for R0 affinity compared to wild-type: in words; for RO/RG: ratio of R0 and RG IC50. How it is done: as §1, §2

The target in assay [4] is T3, G protein-uncoupled receptor (R0) conformation of PTH1R. To be noted: in words, reference (26); cited from earlier work.
In assay [5] the target is T1, G protein-coupled receptor (RG) conformation of PTH1R. To be noted: in words, reference (26); cited from earlier work.
The target in another assay is T4, PTH1R ECD (Homo sapiens, UniProt Q03431).
T4 sequence (Q03431 27-186 limits assumed): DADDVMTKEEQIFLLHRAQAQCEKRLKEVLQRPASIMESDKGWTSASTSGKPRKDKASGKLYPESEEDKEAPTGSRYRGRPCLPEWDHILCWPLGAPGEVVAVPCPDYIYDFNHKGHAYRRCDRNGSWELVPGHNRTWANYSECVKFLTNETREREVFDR
Conditions: previous work (27); cited from earlier work.

A further assay deals with T5, hPTH1R (Homo sapiens, UniProt Q03431).
T5 construct: expressed in transfected cells; host or cells: COS-1 cells (ATCC), transient, DEAE-dextran
T5 sequence (Q03431 27-593): T1 sequence (Q03431 27-593)
Briefly: cAMP accumulation dose-response assay in COS cells. Type of assay: cell-based.

[6] abbreviates: read-out: IC50 Log M RG (converted).

Protocol for hPTH1R: COS cells transiently expressing PTH1R were stimulated with the indicated peptides for 30 min at 37° C. after which the cells were lysed and cAMP content was assessed. […] The cells were stimulated with the indicated peptide for 10 min at room temperature, the ligand was washed out, and cAMP accumulation was assessed at the indicated times after wash out. The results are the average of duplicate samples and are normalized to the level of cAMP induced during the initial stimulation.
cAMP assays. COS-1 cells obtained from American Type Culture Collection (Manassas, Va.) were cultured in Dulbecco's modified Eagle's medium supplemented with 10% fetal bovine serum in a 37° C./5% CO2 incubator. 500,000 cells were seeded in a 10 cm dish and transfected the following morning by the DEAE-dextran method with 3 μg pcDNA3.1 vector encoding hPTH1R. Approximately 40,000 transfected cells were seeded in each well of a 96-well plate 24 hr post-transfection. 48 hrs post-transfection the cells were washed twice with PBS, pH 7.4 and stimulated with peptide. […] The reactions were stopped with cold 6% perchloric acid and the cell lysates were neutralized with KHCO3. cAMP was measured with a LANCE cAMP kit (Perkin-Elmer) according to the manufacturer's instructions. […]

For the molecule `CC[C@H](C)[C@H](NC(=O)[C@H](CC(C)C)NC(=O)[C@H](CCCCN)NC(=O)[C@H](CCCNC(=N)N)NC(=O)[C@H](CC(C)C)NC(=O)[C@H](Cc1c[nH]c2ccccc12)NC(=O)[C@H](CCC(=O)O)NC(=O)[C@@H](NC(=O)[C@H](CCCNC(=N)N)NC(=O)[C@H](CCC(=O)O)NC(=O)[C@H](CCSC)NC(=O)[C@H](CO)NC(=O)[C@H](CC(N)=O)NC(=O)[C@H](CC(C)C)NC(=O)[C@H](Cc1c[nH]cn1)NC(=O)[C@H](CCCCN)NC(=O)CNC(=O)[C@H](CC(C)C)NC(=O)[C@H](CC(N)=O)NC(=O)[C@H](Cc1c[nH]cn1)NC(=O)[C@H](CCSC)NC(=O)[C@H](CC(C)C)NC(=O)[C@H](CCC(N)=O)NC(=O)[C@@H](NC(=O)[C@H](CCC(=O)O)NC(=O)[C@H](CO)NC(=O)[C@@H](NC(=O)[C@@H](N)CO)C(C)C)[C@@H](C)CC)C(C)C)C(=O)N[C@@H](CCC(N)=O)C(=O)N[C@@H](CC(=O)O)C(=O)N[C@H](C(=O)N[C@@H](Cc1c[nH]cn1)C(=O)N[C@@H](CC(N)=O)C(=O)N[C@@H](Cc1ccccc1)C(N)=O)C(C)C` [K27L/L28I], in assay [1] (setting [6]), the concentration for half-maximal inhibition (IC50) was 0.316 nM.
For `CC[C@H](C)[C@H](NC(=O)[C@H](CC(C)C)NC(=O)[C@H](Cc1c[nH]cn1)NC(=O)[C@H](Cc1c[nH]cn1)NC(=O)[C@H](CC(C)C)NC(=O)[C@H](Cc1ccccc1)NC(=O)[C@H](Cc1ccccc1)NC(=O)[C@H](CCCNC(=N)N)NC(=O)[C@H](CCCNC(=N)N)NC(=O)[C@H](CCCNC(=N)N)NC(=O)[C@H](CC(C)C)NC(=O)[C@H](CC(=O)O)NC(=O)[C@H](CCC(N)=O)NC(=O)[C@@H](NC(=O)[C@H](CO)NC(=O)[C@H](CCCCN)NC(=O)CN)[C@@H](C)CC)C(=O)N[C@@H](C)C(=O)N[C@@H](CCC(=O)O)C(=O)N[C@H](C(=O)N[C@@H](Cc1c[nH]cn1)C(=O)N[C@H](C(=O)N[C@@H](C)C(=O)O)[C@@H](C)O)[C@@H](C)CC` [PTHrP(12-34)OH, reference compound], the IC50 in assay [2] was ~2000 nM.
“AVSEHQLLHDKGKSIQDLRRRFWLHHKLAEVHTA-NH2 [F23W/L27K/I28L/I31V]”: the IC50 in assay [1] (setting [6]) is 0.0794 nM. Further, in assay [3], the “R0 affinity compared to wild-type” value is “slightly decreased R0 affinity” and the RO/RG amounted to 586.
Take “GKHLNSMERVEWLRKKLQDVHNF-NH2 [PTH(12-34)NH2, reference compound]”: the IC50 in assay [2] was ~1000 nM.
With “PTH(1-28): PTH fragment 1-28, literature peptide (26) (SVSEIQLMHNLGKHLNSMERVEWLRKKL; Parathyroid hormone; UniProt P01270 32-59, looked up, fragment)”, the “RG-selectivity compared to PTH(1-34)” value in assay [4] is “more RG-selective”. For the same molecule, the “RG affinity compared to PTH(1-34)” value in assay [5] is “diminished RG affinity”.
Turning to “PTH(15-34)NH2: C-terminally amidated 15-34 fragment of PTH (LNSMERVEWLRKKLQDVHNF-NH2)”, in the assay with PTH1R ECD, the Kd is ~1000 nM.
As to “SVSEIQLMHNLGKHLNSMERVEFLRKKIQDVHNF-NH2 [W23F/L28I]”, the IC50 in assay [1] (read-out: IC50 (nM) RG) worked out at 0.2 nM. The RO/RG in assay [3] worked out at 190.
With “SVSEIQLMHNLGKHLNSMERVEFLRKKLQDIHNF-NH2 [W23F/V31I]”, the “ECD-binding (ability to compete biotin-PTH / MBP-PTH1R-ECD interaction)” value in assay [2] was “poor ECD-binding”. For the same molecule, in assay [1] (in words), the “RG affinity compared to wild-type” value is given as “normal RG affinity”. In assay [3], the “R0 affinity compared to wild-type” value is listed as “dramatically reduced R0 affinity” and the RO/RG is 386. On hPTH1R (COS cells transiently expressing PTH1R), the “maximal cAMP levels relative to those obtained with the wt peptides” value is recorded as ~80%. In addition, the “potency of cAMP response compared to wt peptides” value on hPTH1R (in words) is “essentially the same as the wt peptides”.
Take “SVSEIQLMHNLGKHLNSMERVEFLRKKLQDVHNF-NH2 [W23F]”: the concentration for half-maximal inhibition (IC50) in assay [1] (setting [6]) was 0.2 nM. Further, the RO/RG in assay [3] was found to be 59.
In the same order, the values of “SVSEIQLMHNLGKHLNSMERVEFLRKLIQDIHNF-NH2 [W23F/K27L/L28I/V31I]” are 0.631 nM and 68.
Turning to “SVSEIQLMHNLGKHLNSMERVEFLRKLLQDVHNF-NH2 [W23F/K27L]”, the IC50 in assay [1] (setting [6]) was 0.251 nM. Moreover, in assay [3], the RO/RG is on record as 26.4.
With “SVSEIQLMHNLGKHLNSMERVEWLRKKIQDIHNF-NH2 [L28I/V31I]”, the half-inhibitory concentration (IC50) in assay [1] (read-out: IC50 (nM) RG) is 0.31 nM; in assay [1] (setting [6]), 0.251 nM. Also, the RO/RG in assay [3] was 135.
Regarding “SVSEIQLMHNLGKHLNSMERVEWLRKKIQDVHNF-NH2 [L28I]”, the IC50 is 0.1 nM in assay [1] (read-out: IC50 (nM) RG); 3.98 nM in assay [3] (n = 3, GTPγS to uncouple receptor and G protein, read-out: IC50 Log M RO (converted)). For the same molecule, in assay [3], the RO/RG is given as 45.
Consider “SVSEIQLMHNLGKHLNSMERVEWLRKKLQDIHNF-NH2 [V31I]”, for which the IC50 in assay [1] (read-out: IC50 (nM) RG) was 0.31 nM; in assay [1] (setting [6]), 0.251 nM. Besides, the RO/RG in assay [3] came to 110.
As to “SVSEIQLMHNLGKHLNSMERVEWLRKLLQDIHNF-NH2 [K27L/V31I]”, the IC50 in assay [1] (setting [6]) is 0.501 nM. For the same molecule, the RO/RG in assay [3] is recorded as 36.8.
Consider “SVSEIQLMHNLGKHLNSMERVEWLRKLLQDVHNF-NH2 [K27L]”, for which the RO/RG in assay [3] is 11.9.
“quadruply mutant PTHrP peptide: PTHrP(12-34)NH2 scaffold with swaps at all four positions 23′, 27′, 28′, 31′ (GKSIQDLRRRFWLHHKLAEVHTA-NH2)”: in assay [2], the “ECD-binding (ability to compete biotin-PTH / MBP-PTH1R-ECD interaction)” value is on record as “normal binding to the ECD”.

(Values after patent US8563513B2, “Parathyroid hormone peptides and parathyroid hormone-related protein peptides and methods of use” (Van Andel Research Institute, priority 2009, dated 2013).)
